Source: ChEMBL document CHEMBL1201862, “PubChem BioAssay data set” (2004)
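These data come from cells grown in 96-well plates and exposed to compound for 48 hours at five concentrations. At the GI50, growth is halved.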 Activity calls are given as the source filed them. No stated cut-off is given here; in the data, active = GI50 up to about 1.1 µM and inactive = higher.

What was measured:
Assay in all cases: NCI anticancer screen, dose series, 48 h
SF-268 = tested on: SF-268
MCF7 = tested on: MCF7
HL-60 = tested on: HL-60
ACHN = tested on: ACHN
SK-OV-3 = tested on: SK-OV-3
KM12 = tested on: KM12
CAKI-1 = tested on: CAKI-1
SN12C = tested on: SN12C
786-0 = tested on: 786-0
MDA-N = tested on: MDA-N
PC-3 = tested on: PC-3
OVCAR-4 = tested on: OVCAR-4
UO-31 = tested on: UO-31
MDA-MB-435 = tested on: MDA-MB-435
HOP-92 = tested on: HOP-92
BT-549 = tested on: BT-549
COLO 205 = tested on: COLO 205
HT-29 = tested on: HT-29
DU-145 = tested on: DU-145
CCRF-CEM = tested on: CCRF-CEM

Structure (SMILES)	GI50 (SF-268)	GI50 (MCF7)	GI50 (HL-60)	GI50 (ACHN)	GI50 (SK-OV-3)	GI50 (KM12)	GI50 (CAKI-1)	GI50 (SN12C)	GI50 (786-0)	GI50 (MDA-N)	GI50 (PC-3)	GI50 (OVCAR-4)	GI50 (UO-31)	GI50 (MDA-MB-435)	GI50 (HOP-92)	GI50 (BT-549)	GI50 (COLO 205)	GI50 (HT-29)	GI50 (DU-145)	GI50 (CCRF-CEM)
C=C1C(=O)OC2C3OC(C)(CCC(O)C3COC(C)=O)CC(OC(=O)/C(=C/C)COC(C)=O)C12 (stereo not given)	0.982 µM (active)	0.128 µM (active)	0.0248 µM (active)	0.0925 µM (active)	6.64 µM (inactive)	1.5 µM (inactive)	0.166 µM (active)	0.738 µM (active)	0.138 µM (active)	0.155 µM (active)	1.48 µM (inactive)	1.9 µM (inactive)	0.398 µM (active)	0.109 µM (active)	0.159 µM (active)	0.18 µM (active)	0.082 µM (active)	0.154 µM (active)	0.778 µM (active)	0.0176 µM (active)
NNC(=O)c1nn[nH]c1SSc1[nH]nnc1C(=O)NN	> 100 µM (inactive)	> 100 µM (inactive)	> 100 µM (inactive)	> 100 µM (inactive)	> 100 µM (inactive)	> 100 µM (inactive)	> 100 µM (inactive)	> 100 µM (inactive)	> 100 µM (inactive)	> 100 µM (inactive)	> 100 µM (inactive)	> 100 µM (inactive)	> 100 µM (inactive)	> 100 µM (inactive)	> 100 µM (inactive)	> 100 µM (inactive)	> 100 µM (inactive)	> 100 µM (inactive)	> 100 µM (inactive)	> 100 µM (inactive)
NCCOc1ccccn1	> 100 µM (inactive)	> 100 µM (inactive)	> 100 µM (inactive)	> 100 µM (inactive)	> 100 µM (inactive)	> 100 µM (inactive)	> 100 µM (inactive)	> 100 µM (inactive)	> 100 µM (inactive)	> 100 µM (inactive)	> 100 µM (inactive)	> 100 µM (inactive)	> 100 µM (inactive)	> 100 µM (inactive)	> 100 µM (inactive)	> 100 µM (inactive)	> 100 µM (inactive)	> 100 µM (inactive)	> 100 µM (inactive)	> 100 µM (inactive)
CCOC(=O)c1ccc2nc3n(c2c1)C(c1c(F)cccc1F)SC3 (stereo not given)	> 100 µM (inactive)	56.8 µM (inactive)	> 100 µM (inactive)	84.1 µM (inactive)	> 100 µM (inactive)	81.8 µM (inactive)	> 100 µM (inactive)	> 100 µM (inactive)	55.7 µM (inactive)	> 100 µM (inactive)	72.1 µM (inactive)	> 100 µM (inactive)	> 100 µM (inactive)	> 100 µM (inactive)	> 100 µM (inactive)	> 100 µM (inactive)	> 100 µM (inactive)	> 100 µM (inactive)	> 100 µM (inactive)	> 100 µM (inactive)
c1ccc([P+](Cc2ccc(C[P+](c3ccccc3)(c3ccccc3)c3ccccc3)s2)(c2ccccc2)c2ccccc2)cc1	> 100 µM (inactive)	> 100 µM (inactive)	> 100 µM (inactive)	> 100 µM (inactive)	> 100 µM (inactive)	> 100 µM (inactive)	> 100 µM (inactive)	> 100 µM (inactive)	> 100 µM (inactive)	> 100 µM (inactive)	> 100 µM (inactive)	> 100 µM (inactive)	> 100 µM (inactive)	> 100 µM (inactive)	> 100 µM (inactive)	> 100 µM (inactive)	> 100 µM (inactive)	> 100 µM (inactive)	> 100 µM (inactive)	> 100 µM (inactive)
NC1CCN(c2nc3ccccc3c3c2CCCC3)CC1	12.5 µM (inactive)	3.07 µM (inactive)	1.77 µM (inactive)	8.87 µM (inactive)	12.6 µM (inactive)	4.07 µM (inactive)	5.77 µM (inactive)	8.67 µM (inactive)	3.8 µM (inactive)	2.97 µM (inactive)	7.89 µM (inactive)	1.38 µM (inactive)	4.05 µM (inactive)	2.2 µM (inactive)	4.99 µM (inactive)	12.7 µM (inactive)	1.67 µM (inactive)	2.11 µM (inactive)	11.9 µM (inactive)	4.28 µM (inactive)
Cc1ccc(/N=C2\C(=O)C3=C(OC(C)(C)CC3)c3ccccc32)cc1	1.53 µM (inactive)	0.29 µM (active)	0.227 µM (active)	0.313 µM (active)	1.57 µM (inactive)	1.52 µM (inactive)	1.71 µM (inactive)	0.505 µM (active)	1.78 µM (inactive)	0.183 µM (active)	1.22 µM (inactive)	0.986 µM (active)	0.652 µM (active)	0.183 µM (active)	1.77 µM (inactive)	1.33 µM (inactive)	1.69 µM (inactive)	0.247 µM (active)	1.31 µM (inactive)	2.04 µM (inactive)
CC(=O)N1c2ccccc2Sc2cc(C(O)(C(F)(F)F)C(F)(F)F)ccc21	> 10 µM (inactive)	> 10 µM (inactive)	> 10 µM (inactive)	> 10 µM (inactive)	> 10 µM (inactive)	> 10 µM (inactive)	> 10 µM (inactive)	> 10 µM (inactive)	> 10 µM (inactive)	> 10 µM (inactive)	> 10 µM (inactive)	> 10 µM (inactive)	> 10 µM (inactive)	> 10 µM (inactive)	4.66 µM (inactive)	> 10 µM (inactive)	> 10 µM (inactive)	> 10 µM (inactive)	> 10 µM (inactive)	> 10 µM (inactive)
Cc1cc2ncn(C3CCCCO3)c2cc1C (stereo not given)	> 100 µM (inactive)	> 100 µM (inactive)	> 100 µM (inactive)	> 100 µM (inactive)	> 100 µM (inactive)	35.5 µM (inactive)	> 100 µM (inactive)	> 100 µM (inactive)	> 100 µM (inactive)	> 100 µM (inactive)	> 100 µM (inactive)	> 100 µM (inactive)	20.2 µM (inactive)	> 100 µM (inactive)	> 100 µM (inactive)	> 100 µM (inactive)	> 100 µM (inactive)	> 100 µM (inactive)	> 100 µM (inactive)	> 100 µM (inactive)
Cc1ccc(O)c(C2=CC3=NNC(=O)C3C(c3cccc(Br)c3)C2)c1 (stereo not given)	23 µM (inactive)	11.4 µM (inactive)	25.4 µM (inactive)	24 µM (inactive)	14.6 µM (inactive)	14.9 µM (inactive)	23 µM (inactive)	19.9 µM (inactive)	29.5 µM (inactive)	23.7 µM (inactive)	34.3 µM (inactive)	8.04 µM (inactive)	57.3 µM (inactive)	23.9 µM (inactive)	16.6 µM (inactive)	23.1 µM (inactive)	12.3 µM (inactive)	23.8 µM (inactive)	29.2 µM (inactive)	25.1 µM (inactive)
NC(=O)NC(=O)c1cccc(NC(=O)CF)c1	> 100 µM (inactive)	> 100 µM (inactive)	> 100 µM (inactive)	> 100 µM (inactive)	> 100 µM (inactive)	> 100 µM (inactive)	> 100 µM (inactive)	> 100 µM (inactive)	> 100 µM (inactive)	> 100 µM (inactive)	> 100 µM (inactive)	> 100 µM (inactive)	31 µM (inactive)	> 100 µM (inactive)	> 100 µM (inactive)	> 100 µM (inactive)	> 100 µM (inactive)	> 100 µM (inactive)	> 100 µM (inactive)	> 100 µM (inactive)
O=[N+]([O-])/C=C/c1cc(Cl)c(/C=C/[N+](=O)[O-])cc1Cl	2.66 µM (inactive)	2.89 µM (inactive)	0.205 µM (active)	1.57 µM (inactive)	35.6 µM (inactive)	3.03 µM (inactive)	1.89 µM (inactive)	1.8 µM (inactive)	1.16 µM (inactive)	2.27 µM (inactive)	2.55 µM (inactive)	1.87 µM (inactive)	1.49 µM (inactive)	1.82 µM (inactive)	2.55 µM (inactive)	1.57 µM (inactive)	1.95 µM (inactive)	2.5 µM (inactive)	2.51 µM (inactive)	0.8 µM (active)
Clc1ccc2c(NCCCCCCNc3ccnc4cc(Cl)ccc34)ccnc2c1	5.35 µM (inactive)	2.51 µM (inactive)	1.98 µM (inactive)	3.67 µM (inactive)	5.22 µM (inactive)	2.66 µM (inactive)	9.04 µM (inactive)	2.74 µM (inactive)	1.97 µM (inactive)	2.46 µM (inactive)	3.65 µM (inactive)	2.54 µM (inactive)	4.83 µM (inactive)	6.04 µM (inactive)	2 µM (inactive)	11.6 µM (inactive)	1.82 µM (inactive)	1.99 µM (inactive)	6.19 µM (inactive)	2.34 µM (inactive)
CCOC(=O)c1c(O)nc(O)c(CC)c1C	> 100 µM (inactive)	> 100 µM (inactive)	> 100 µM (inactive)	> 100 µM (inactive)	> 100 µM (inactive)	> 100 µM (inactive)	> 100 µM (inactive)	> 100 µM (inactive)	> 100 µM (inactive)	> 100 µM (inactive)	> 100 µM (inactive)	> 100 µM (inactive)	> 100 µM (inactive)	> 100 µM (inactive)	> 100 µM (inactive)	> 100 µM (inactive)	> 100 µM (inactive)	> 100 µM (inactive)	> 100 µM (inactive)	> 100 µM (inactive)
